In article PMC6994103 (PLoS Neglected Tropical Diseases, 2020):

How the values were obtained:
VERO cells = assay: Toxicity assay in VERO cells (gentian violet staining); format: cell-based, African green monkey; settings: IC50 in VERO cells / IC50 in trypomastigotes (Y strain)
Experimental: VERO cells (African green monkey Kidney, ATCC CCL-81) were cultured in MEM medium supplemented with 10% heat inactivated FCS, 0.15% (w/v) NaHCO3, 100 U/mL penicillin and 100 U/mL streptomycin at 37°C in 5% CO2.
The toxicity of the compounds was determined in VERO cells by the gentian violet staining assay. Briefly, the cells (1 x10^4 cells/well) were incubated in 96-well plates with the indicated compound or dimethyl sulfoxide (DMSO) as negative control and maintained at 37° C for 24 h. Then the cells were fixed for 15 min, and stained with 0.5% gentian violet. The absorbance was measured at 570 nm. The selectivity index (SI) was calculated for each CV analogue as the ratio between the IC50 obtained in mammalian cells and the IC50 in trypomastigotes. For the combined treatment, the results were presented as percentage of untreated cells.

[1] = system: proline transporter TcAAAP069; assay: Proline transport assay in wild type (TcWT) epimastigotes; format: cell-based, Trypanosoma cruzi; settings: for proline transport inhibition at 25 μM and 100 μM: TcWT epimastigotes, preliminary
Experimental: (§1) Aliquots of epimastigote cultures (10^7 parasites) were centrifuged at 8,000 xg for 30 s, and washed once with PBS. […] Following incubation at 28°C, reaction was stopped by adding 1 mL of ice-cold PBS. Cells were centrifuged as indicated above, and washed twice with ice-cold PBS. Cell pellets were resuspended in 0.2 mL of water and counted for radioactivity in UltimaGold XR liquid scintillation cocktail (Packard Instrument Co., Meridien CT, USA). Cell viability was assessed by direct microscopic examination and viability assays by using “Cell Titer 96 Aqueous One Solution Cell Proliferation Assay (MTS)” (Promega, Madison, WI, USA) according to the manufacturer instructions. […] Non-specific uptake and carry over were assayed without incubation (T0), or incubated at 4°C. […] As a control, regular PBS buffer was used.

[2] = system: proline transporter TcAAAP069; assay: Proline transport assay in TcAAAP069 overexpressing (Tc069) epimastigotes; format: cell-based, Trypanosoma cruzi; settings: Tc069 vs TcWT
Experimental: as §1

[3] = system: T. cruzi Tc069 epimastigotes Y strain; assay: Trypanocidal activity in TcAAAP069 overexpressing (Tc069) epimastigotes; format: cell-based, Trypanosoma cruzi; settings: Tc069 vs TcWT
Experimental: (§2) Epimastigotes of T. cruzi were cultured as described above, in 24-wells plate at a start density of 0.5 x10^7 cells/mL in BHT medium. Parasites´ growth was evaluated at different concentrations of BZL, CV and CV structural analogues, and parasite proliferation was determined after 48 h. Trypanocidal activity in trypomastigotes and amastigotes was performed using 1 x10^6 cells/mL in 96-well plates and incubating at 37°C for 24 h in the presence of the corresponding drug. Growth was determined by counting in a Neubauer chamber and viability assays by using “Cell Titer 96 Aqueous One Solution Cell Proliferation Assay (MTS)” (Promega, Madison, WI, USA) according to the manufacturer’s instructions. Amastigotes were fixed with methanol, stained and mounted with Vectashield with DAPI (Vector Laboratories, Burlingame, CA, USA), and then the non-lysed cells were counted by using fluorescence microscopy.

[4] = system: T. cruzi epimastigotes Dm28c strain; assay: Trypanocidal activity in epimastigotes, Dm28c strain; format: cell-based, Trypanosoma cruzi; settings: Dm28c vs Y
Experimental: (§3) VERO cells (5 x10^4 per well) were infected with trypomastigotes (2.5 ×10^5 per well) for 4 h. After this period, the infected cells were washed twice with phosphate-buffered saline (PBS), the MEM medium was replaced, and the cells were kept in culture at 37°C, 5% CO2. In order to obtain intracellular amastigotes, the cells were lysed 4 days after infection using a cell scraper, collected, washed twice with PBS (or MEM) and counted using a hemocytometer. Trypomastigotes were obtained from infected VERO cells as previously described.
as §2

[5] = system: T. cruzi epimastigotes CL Brener strain; assay: Trypanocidal activity in epimastigotes, CL Brener strain; format: cell-based, Trypanosoma cruzi; settings: CL Brener vs Y
Experimental: as §3
Epimastigotes of T. cruzi were cultured as described above, in 24-wells plate at a start density of 0.5 x10^7 cells/mL in BHT medium. Parasites´ growth was evaluated at different concentrations of BZL, CV and CV structural analogues, and parasite proliferation was determined after 48 h. […] Growth was determined by counting in a Neubauer chamber and viability assays by using “Cell Titer 96 Aqueous One Solution Cell Proliferation Assay (MTS)” (Promega, Madison, WI, USA) according to the manufacturer’s instructions. Amastigotes were fixed with methanol, stained and mounted with Vectashield with DAPI (Vector Laboratories, Burlingame, CA, USA), and then the non-lysed cells were counted by using fluorescence microscopy.

CC(C)/N=c1\cc2n(-c3ccc(Cl)cc3)c3ccccc3nc-2cc1Nc1ccc(Cl)cc1 [Clofazimine]
Selectivity Index (VERO cells): 36.1

CN(C)c1ccc(C(=C2C=CC(=[N+](C)C)C=C2)c2ccc(N(C)C)cc2)cc1 [Crystal Violet]
effect on pH dependency of proline transport ([1]; CV 10 μM, citrate buffer pH 5.0-6.5): did not alter the pH dependency
proline transport inhibition in the absence of Na+ or K+ cations ([1]; CV 10 μM, modified PBS vs regular PBS): No differences were observed
mechanism of inhibition of proline transport ([1]; TcWT, listed as CV): reversible competitive mechanism of inhibition
fold increase of proline transport IC50 in Tc069 vs control parasites [2]: 2.5 fold
fold reduction of trypanocidal IC50 in Tc069 vs wild type [3]: 47 fold
fold lower IC50 in Dm28c than in Y epimastigotes [4]: 31.8 fold
fold lower IC50 in CL Brener than in Y epimastigotes [5]: 4.0 fold

Nc1ccc(S(=O)(=O)c2ccc(N)cc2)cc1 [Dapsone]
proline transport inhibition at 25 μM and 100 μM [1]: did not inhibit the proline transport in any concentration assayed

Cc1cc2c(s1)Nc1ccccc1N=C2N1CCN(C)CC1 [Olanzapine]
proline transport inhibition at 25 μM and 100 μM [1]: only inhibited proline transport at 100 μM
concentration producing death of parasites in the lapse time of the transport assay ([1]; epimastigotes): over 300 μM
